Legend:
MCF-7 cells = assay: SiNW-ECIS electrical impedance/capacitance response of MCF-7 cells treated with antitubulin drugs; format: cell-based, human; conditions: PTX 0.1 nano-moles per liter; for changes in membrane impedance vs control sample (normalized, mean) / variations in capacitance of the sensor vs control sample (normalized): MCF-7, 2 hours (T1) after drug incubation; for changes in membrane impedance vs control sample (normalized, mean) / variations in capacitance of the sensor vs control sample (normalized) / change in norm of impedance of treated cells, T1 vs T2 / changes in electrical impedance with respect to control sample / norm of capacitive changes, control sample more than drug value: ABZ 2.1 nano-moles per liter; for changes in electrical impedance with respect to control sample / norm of capacitive changes, control sample more than drug value: MCF-7, 6 hours (T2) after drug incubation
Protocol: In this example, the diagnostic response of cells membrane to extremely low dose of antitubulin drugs is investigated. Initially, MCF-7 cell lines, isolated from grade I human breast tumors, were obtained from the National Cell Bank of Iran (Pasteur Institute). Then, cells were maintained in a CO2 incubator (37° C., 5% CO2) in RPMI-1640 medium supplemented with 5% fetal bovine serum, and 1% penicillin/streptomycin. The fresh medium was replaced every other day. Then, the cultured cells were dropped on the surface of the SiNW-ECIS, designed and fabricated pursuant to teachings of the present application. Prior to each experiment, cells were trypsinized to be detached from the substrate and resuspended on the SiNW surface. To minimize the effect of trypsinization, the procedure may last for less than 4 minutes at room temperature of about 20° C. The samples were held in an incubator for about 4 hours to achieve cells attachment on the SiNWs. Thereafter, the ABZ drug with low concentrations of about 2.1 nano-moles per liter and the PTX drug with low concentrations of about 0.1 nano-moles per liter were added to individual samples. Finally, the signal recording and biological assays were investigated about 2 hours and 6 hours after the drug treatment (6 hours and 10 hours after the beginning of culturing process).
Referring to FIGS. 12A-12G, comparative normalized diagrams of impedance (designated by ΔZ % and represented by solid black lines) and capacitance changes (designated by ΔC % and represented by dashed grey lines) are illustrated for MCF-7 cells seeded on SiNW electrodes after treating by 2.1 nano-moles per liter of ABZ and 0.1 nano-moles per liter of PTX. The time interval between the drug incubation and the signal extraction are 2 hours (designated by T1) and 6 hours (designated by T2). In addition, the same diagrams are plotted for control sample prepared with no drug treatment stage.
According to the method described in the present example, the samples were maintained in an incubator so that the signal extraction was repeated 10 hours after cells dropping (6 hours after drug incubation for treated samples) to monitor the time evolution of drug induced MT polymerization/depolymerization on bioelectrical response of the membrane.

[1] = system: tubulin assemblies of MCF-7 cells; assay: Confocal microscopy of tubulin assemblies of MCF-7 cells; format: cell-based, human; conditions: ABZ 2.1 nano-moles per liter, PTX 0.1 nano-moles per liter
Protocol: In addition, an un-treated control sample was prepared as reference for comparison. Then, samples were washed with PBS and permeabilized with microtubule stabilizing buffer [80 mM PIPES-KOH (pH 6.8), 5 mM EGTA, and 1 mM MgCl2 containing 0.5% Triton X-100] for 5 min at room temperature before being fixed with chilled absolute methanol for 10 min at −20° C. Thereafter, the fixed cells were washed and incubated with monoclonal mouse anti-α-tubulin antibody (Sigma Co.) for 1 hour at room temperature followed by incubation with FITC-conjugated antimouse IgG antibody (Santa Cruz Biotechnology). The stained cells were mounted with Vectashield (Vector Laboratories, Burlingame, Calif.) and observed by confocal microscopy.

[2] = MCF-7, 2 hours vs 6 hours after drug incubation

| SMILES | changes in membrane impedance vs control sample (normalized, mean) (MCF-7 cells) | variations in capacitance of the sensor vs control sample (normalized) (MCF-7 cells) | change in norm of impedance of treated cells, T1 vs T2 (MCF-7 cells; [2]) | changes in electrical impedance with respect to control sample (MCF-7 cells) | norm of capacitive changes, control sample more than drug value (MCF-7 cells) | spindle / microtubule morphology in confocal image ([1]; MCF-7, 2 hours after treatment) | spindle / microtubule morphology in confocal image ([1]; MCF-7, 6 hours after treatment) | time dependent variation in capacitive behavior, T1 vs T2 (MCF-7 cells; [2]) |
| --- | --- | --- | --- | --- | --- | --- | --- | --- |
| CCCSc1ccc2nc(NC(=O)OC)[nH]c2c1 [ABZ, Albendazole] | 25% | 70% | about 60% | about 90% | about 90% | abnormally reduced numbers of spindles or monopolar (monoaster) spindles | still the monoastered MTs are observable |  |
| CC(=O)O[C@H]1C(=O)[C@@]2(C)[C@H]([C@H](OC(=O)c3ccccc3)[C@]3(O)C[C@H](OC(=O)[C@H](O)[C@@H](NC(=O)c4ccccc4)c4ccccc4)C(C)=C1C3(C)C)[C@]1(OC(C)=O)CO[C@@H]1C[C@@H]2O [PTX, Paclitaxel] | about 50% | about 60% | 15% | about 30% | ~75% | aggregated spindles | increased aggregation in MT spindles | about 85% |

From patent US20160178613A1, “Electrical Cell-substrate Impedance Sensor (ECIS)” (priority 2015, published 2016)
